# According to patent US20080287493A1, “ARYLMETHYLEN SUBSTITUTED N-ACYL-Y-AMINOALCOHOLS” (priority 2007, published 2008):
# pEC50, pIC50: −log10 of the molar value.
# Legend:
# [1] = biological target: T1, human FSH receptor (Homo sapiens, UniProt P23945); assay: HTRF assay for measuring cAMP in cells, test for agonism (in the absence of hFSH); assay type: cell-based; details: hFSHR clone 16 cells (CHO cells stably transfected with the human FSH receptor), 37° C. for 2 h, read-out: EC50 (FSH agonistic effect in the HTRF assay)
# T1 construct: expressed in transfected cells; host or cells: CHO cells (hFSHR clone 16)
# T1 sequence (P23945 18-695): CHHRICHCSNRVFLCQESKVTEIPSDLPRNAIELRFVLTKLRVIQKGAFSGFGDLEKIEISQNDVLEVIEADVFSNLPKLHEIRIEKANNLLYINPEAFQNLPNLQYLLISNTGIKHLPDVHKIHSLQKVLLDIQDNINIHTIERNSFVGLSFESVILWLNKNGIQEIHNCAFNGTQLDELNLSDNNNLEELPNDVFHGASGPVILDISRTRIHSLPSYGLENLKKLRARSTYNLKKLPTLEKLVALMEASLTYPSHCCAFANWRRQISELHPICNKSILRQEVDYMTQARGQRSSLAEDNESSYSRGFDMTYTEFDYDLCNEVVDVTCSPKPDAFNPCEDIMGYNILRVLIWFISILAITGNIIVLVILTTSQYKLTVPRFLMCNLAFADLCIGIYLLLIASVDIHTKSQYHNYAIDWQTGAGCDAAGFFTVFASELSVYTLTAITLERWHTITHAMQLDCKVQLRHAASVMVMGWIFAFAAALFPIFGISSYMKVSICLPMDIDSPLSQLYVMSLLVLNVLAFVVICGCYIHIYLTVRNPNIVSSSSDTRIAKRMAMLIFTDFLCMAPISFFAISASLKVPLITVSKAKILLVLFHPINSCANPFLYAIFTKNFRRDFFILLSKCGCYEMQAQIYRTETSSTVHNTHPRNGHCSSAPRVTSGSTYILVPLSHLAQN
# Method: (§1) HTRF Assay for Measuring cAMP in Cells
# (§2) The method is based on a competitive immunoassay between native cAMP, which has been produced by the cells, and cAMP which is labelled with XL665. The tracer binding was visualized by a monoclonal antibody, anti-cAMP labelled with cryptate [HTRF=homogeneous time-resolved fluorescence].
# (§3) The specific signal is inversely proportional to the cAMP concentration of the samples employed.
# (§4) The 665 nm/620 nm fluorescence ratio was evaluated.
# (§5) The following material was used: 96-well plates for the tissue culture, 96-well plates with black edge and black base (e.g. Fluotrac 600 from Greiner), 96-well plates for the substance dilutions of polypropylene and cAMP Femtomolar (4000 wells Kit, CIS Bio International # 62AM1PEC).
# (§6) The following reagents were used: BSA (bovine serum albumin) Fraction V protease-free, IBMX (3-isobutyl-1-methylxanthine), hFSH (human follicle stimulating hormone), Triton X-100 analytical grade, potassium fluoride analytical grade, G 418 (Geneticin) and Accutase.
# (§7) Buffer 1 (washing and testing buffer) contained PBS, 1 mM CaCl2, 1 mM MgCl2, 0.2% glucose; 0.1% BSA, 1 mM IBMX. Buffer 2 (2× lysis buffer) contained 1% Triton X-100 in PBS (without CaCl2 and MgCl2). Buffer 3 (assay buffer) contained 50 mM potassium phosphate buffer (pH 7.0); 800 mM potassium fluoride; 0.2% BSA (always added fresh).
# (§8) On day 1, the cells were seeded in 96-well plates (3×10^4 cells per well hFSHR clone 16 cells (CHO cells stably transfected with the human FSH receptor in 150 μl of medium). The next day, test substance dilutions were made up. For this purpose, all the substances were diluted in ice-cold buffer 1 (with or without hFSH), and the substance dilutions were placed on ice until applied to the cells.
# (§9) The cell supernatant was then aspirated off, and the cells were washed 2× with 200 μl of buffer 1. The cells were treated with 60 μl of the appropriate substance concentrations at 37° C. for 2 h. The cells were then lysed with 60 μl of buffer 2 (put onto the supernatant) (on a plate shaker at RT for 30 min).
# (§10) The test conjugates (XL-665 and anti-cAMP cryptate) were diluted in buffer 3 in accordance with the manufacturers' information. The actual mixture for measurement was pipetted into a black 96-well plate (in each case 15 μl of the cell lysate diluted with 35 μl of buffer 1; firstly 25 μl of XL-665 conjugate were pipetted and, after 10 min, 25 μl of the anti-cAMP cryptate were added). This is followed by incubation at RT for 90 minutes. The measurement was carried out in a PheraStar (BMG).
# (§11) Dose-effect curve (hFSH) for the human receptor: 1e-8, 3e-9, 1 e-9, 3e-10, 1e-10, 3e-11, 1e-11, 3e-12 mol/l.
# (§12) The test substances were employed in suitable dilutions in the absence (test for agonism) and in the presence of 1e-9 mol/l hFSH.
# (§13) The values of the well ratio were averaged and then entered directly in SigmaPlot versus the concentrations. The maximum and minimum values were determined for each plate, and half the difference is to be regarded as IC50.
# [2] = biological target: T1, human FSH receptor; assay: HTRF assay for measuring cAMP in cells, test for antagonism (in the presence of hFSH); assay type: cell-based; details: hFSHR clone 16 cells (CHO cells stably transfected with the human FSH receptor); in the presence of 1e-9 mol/l hFSH; 37° C. for 2 h; read-out: IC50 (FSH antagonistic effect in the HTRF assay)
# Method: as §1, §2, §3, §4, §5, §6, §7, §8, §9, §10, §11, §12, §13
pEC50 [1],pIC50 [2],SMILES
5.15,< 5.00,"COc1ccc2nc(-c3cc(OC)c(OC)c(OC)c3)cc(C(=O)N[C@@H](CCO)Cc3ccc4ccccc4c3)c2c1 [Example 8, 6-Methoxy-2-(3,4,5-trimethoxy-phenyl)-quinoline-4-carboxylic acid ((R)-3-hydroxy-1-naphthalen-2-ylmethyl-propyl)-amide]"
5.30,< 5.00,"COc1ccc2nc(-c3cc(OC)c(OC)c(OC)c3)cc(C(=O)N[C@@H](CCO)Cc3ccsc3)c2c1 [Example 12, 6-Methoxy-2-(3,4,5-trime-thoxy-phenyl)-quinoline-4-carboxylic acid ((R)-3-hydroxy-1-thiophen-3-yl-methyl-propyl)-amide]"
5.22,< 5.00,"COc1ccc2nc(-c3cc(OC)c(OC)c(OC)c3)cc(C(=O)N[C@H](CCO)Cc3c[nH]c4ccccc34)c2c1 [Example 14, 6-Methoxy-2-(3,4,5-trimethoxy-phenyl)-quinoline-4-carboxylic acid [(S)-3-hydroxy-1-(1H-indol-3-yl-methyl)-propyl]-amide]"
5.10,< 5.00,"COc1ccc2nc(-c3cc(OC)c(OC)c(OC)c3)cc(C(=O)N[C@H](CCO)Cc3ccccc3)c2c1 [Example 17, 6-Methoxy-2-(3,4,5-trime-thoxy-phenyl)-quinoline-4-carboxylic acid ((S)-1-benzyl-3-hydroxy-propyl)-amide]"
–,< 5.00,"COc1ccc2nc(-c3cc(OC)c(OC)c(OC)c3)cc(C(=O)N[C@@H](CCO)Cc3csc4ccccc34)c2c1 [Example 9, 6-Methoxy-2-(3,4,5-trime-thoxy-phenyl)-quinoline-4-carboxylic acid ((R)-1-benzo-[b]thiophen-3-ylmethyl-3-hydroxy-propyl)-amide]"
< 5.00,6.52,"CCOc1ccc(-c2cccc(OC)c2)cc1C(=O)N[C@@H](CCO)Cc1c[nH]c2ccccc12 [Example 2, 4-Ethoxy-3′-methoxy-biphenyl-3-carboxylic acid [(R)-3-hydroxy-1-(1H-indol-3-ylmethyl)-propyl]-amide]"
< 5.00,6.82,"COc1ccccc1C#Cc1ccc(OC(C)C)c(C(=O)N[C@@H](CCO)Cc2c[nH]c3ccccc23)c1 [Example 5, N-[(R)-3-Hydroxy-1-(1H-indol-3-ylmethyl)-propyl]-2-isopropoxy-5-(2-methoxy-phenylethynyl)-benzamide]"
< 5.00,7.60,"CNC(=O)c1ccc(-c2ccc(OC(C)C)c(C(=O)N[C@@H](CCO)Cc3c[nH]c4ccccc34)c2)cc1Cl [Example 3, 3′-Chloro-4-isopropoxy-biphenyl-3,4′-dicarboxylicacid 3-{[(R)-3-hydroxy-1-(1H-indol-3-ylmethyl)-propyl]-amide} 4′-methylamide]"
